Data: patent US20240270809A1, “ORAL GLP RECEPTOR AGONISTS” (priority 2020, published 2024)
Positions of bridges follow the written chain, without caps; N, C: chain ends. Non-standard residues stand in square brackets, D forms with d. Residues, ends and D or L forms follow the SMILES beside them. *: point of attachment. Malonyl(2,2-Me2,histaminyl) = CC(C)(C(=O)NCCc1cnc[nH]1)C(=O)*; Ala(1H-tetrazol-5-yl) = N[C@@H](Cc1nnn[nH]1)C(=O)O; αMeL = CC(C)C[C@](C)(N)C(=O)O; Nle = CCCC[C@H](N)C(=O)O; Aib = CC(C)(N)C(=O)O

Experiments:
human GLP2 receptor = target: T1, human GLP2 receptor (Homo sapiens, UniProt O95838); assay: cAMP accumulation assay, functional agonism of human GLP2 receptor; type: cell-based; conditions: HEK cells infected with human GLP2 receptor BacMam virus, HTRF cAMP; for Emax: HEK293, read-out: Human GLP-2R agonist cAMP Emax; for EC50: read-out: Human GLP-2R agonist cAMP pEC50 (converted)
T1 construct: expressed in transfected cells; host or cells: HEK cells, BacMam virus transduction
T1 sequence (O95838 1-553): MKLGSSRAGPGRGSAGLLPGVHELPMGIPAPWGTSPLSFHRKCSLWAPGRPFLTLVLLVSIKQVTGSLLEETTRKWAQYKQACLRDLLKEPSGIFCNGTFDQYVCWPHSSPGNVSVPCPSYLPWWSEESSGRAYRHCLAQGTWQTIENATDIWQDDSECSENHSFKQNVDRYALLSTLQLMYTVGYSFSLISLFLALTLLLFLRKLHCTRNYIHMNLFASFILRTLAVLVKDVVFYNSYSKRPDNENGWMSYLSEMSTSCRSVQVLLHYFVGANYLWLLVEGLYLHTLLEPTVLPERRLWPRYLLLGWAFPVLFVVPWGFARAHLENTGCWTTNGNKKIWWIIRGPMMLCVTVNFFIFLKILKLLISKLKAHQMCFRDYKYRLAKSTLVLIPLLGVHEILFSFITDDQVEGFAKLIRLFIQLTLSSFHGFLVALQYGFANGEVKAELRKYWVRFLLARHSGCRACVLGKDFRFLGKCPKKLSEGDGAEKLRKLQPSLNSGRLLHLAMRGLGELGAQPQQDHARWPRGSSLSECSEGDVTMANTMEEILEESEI
How it was run: (§1)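 HEK cells transduced 24 h with human GLP1 or GLP2 receptor BacMam virus, then frozen until use. Agonist stimulation for 45 min at 37 °C in HBSS with 0.5 mM IBMX; cAMP measured by HTRF after lysis.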

human GLP1 receptor = target: T2, human GLP1 receptor (Homo sapiens, UniProt P43220); assay: cAMP accumulation assay, functional agonism of human GLP1 receptor; type: cell-based; conditions: HEK cells infected with human GLP1 receptor BacMam virus, HTRF cAMP; for Emax: HEK293, read-out: Human GLP-1R agonist cAMP Emax; for EC50: read-out: Human GLP-1R agonist cAMP pEC50 (converted)
T2 construct: expressed in transfected cells; host or cells: HEK cells, BacMam virus transduction
T2 sequence (P43220 24-463): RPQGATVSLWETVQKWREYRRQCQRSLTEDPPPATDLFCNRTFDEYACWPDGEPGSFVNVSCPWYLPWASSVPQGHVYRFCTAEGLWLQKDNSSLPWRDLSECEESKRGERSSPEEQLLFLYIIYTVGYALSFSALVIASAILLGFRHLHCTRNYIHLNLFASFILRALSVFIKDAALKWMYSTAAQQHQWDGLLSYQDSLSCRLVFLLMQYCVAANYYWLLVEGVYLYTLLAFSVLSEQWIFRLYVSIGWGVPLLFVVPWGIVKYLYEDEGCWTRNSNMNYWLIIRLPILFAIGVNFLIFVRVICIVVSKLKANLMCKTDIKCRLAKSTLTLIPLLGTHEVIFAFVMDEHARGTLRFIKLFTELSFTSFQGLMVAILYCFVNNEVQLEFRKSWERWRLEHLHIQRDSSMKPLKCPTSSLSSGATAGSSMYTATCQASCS
How it was run: as §1

[1] = Stability of peptides in Fasted-State Simulated Intestinal Fluid (FaSSIF); type: in vitro ADME; conditions: FaSSIF with 10 mg/ml pancreatin, 37° C.; for remaining at 0.25 h: FaSSIF pH 6.5 with 10 mg/ml pancreatin, t = 15 mins

SMILES | Emax (human GLP2 receptor) [%] | EC50 (human GLP2 receptor) [pM] | Emax (human GLP1 receptor) [%] | EC50 (human GLP1 receptor) [pM] | remaining at 0.25 h [1] [%] | remaining at 0.5 h ([1]; t=30 mins, pH 6.5, 10 mg/ml pancreatin) [%]
CCCC[C@H](NC(=O)[C@H](CCC(=O)O)NC(=O)[C@H](CC(=O)O)NC(=O)[C@H](CO)NC(=O)[C@H](Cc1ccccc1)NC(=O)[C@H](CO)NC(=O)CNC(=O)[C@H](Cc1nn[nH]n1)NC(=O)C(C)(C)C(=O)NCCc1c[nH]cn1)C(=O)N[C@H](Cc1ccccc1)C(=O)N[C@H](C(=O)N[C@H](C(=O)N[C@@H](CC(C)C)C(=O)N[C@@H](CC(=O)O)C(=O)N[C@H]1CC(=O)NCCCC[C@@H](C(=O)N[C@@H](CC(=O)O)C(=O)N[C@@H](Cc2ccccc2)C(=O)N[C@H](C(=O)N[C@@H](CC(N)=O)C(=O)N[C@@H](Cc2c[nH]c3ccccc23)C(=O)N[C@@H](CC(C)C)C(=O)N[C@H](C(=O)N[C@@H](CCC(N)=O)C(=O)N[C@H](C(=O)N[C@H]2CCC(=O)NCCCC[C@@H](C(N)=O)NC(=O)[C@H]([C@@H](C)O)NC(=O)[C@H]([C@@H](C)CC)NC2=O)[C@@H](C)O)[C@@H](C)CC)[C@@H](C)CC)NC(=O)[C@H](C)NC(=O)[C@H](C)NC(=O)[C@H](CCCCN)NC1=O)[C@@H](C)CC)[C@@H](C)O [Example 106] ({Malonyl(2,2-Me2,histaminyl)}-[Ala(1H-tetrazol-5-yl)]GSFSDE[Nle][dF]TILDDKAAKDFINWLIQTEITK-NH2; lactam 14-18, 28-31; C-terminus assumed) | 102 | 501 | 97.2 | 316 | 9.6 | 
CCCC[C@H](NC(=O)[C@H](CCC(=O)O)NC(=O)[C@H](CC(=O)O)NC(=O)[C@H](CO)NC(=O)[C@H](Cc1ccccc1)NC(=O)[C@H](CO)NC(=O)CNC(=O)[C@H](CC(=O)O)NC(=O)C(C)(C)NC(=O)[C@@H](N)Cc1c[nH]cn1)C(=O)N[C@H](Cc1ccccc1)C(=O)N[C@H](C(=O)N[C@H](C(=O)N[C@@H](CC(C)C)C(=O)N[C@@H](CC(=O)O)C(=O)N[C@@H](CC(C)C)C(=O)N[C@@H](CCCCN)C(=O)N[C@@H](C)C(=O)N[C@@H](C)C(=O)N[C@@H](CCCCN)C(=O)N[C@@H](CC(=O)O)C(=O)N[C@@H](Cc1ccccc1)C(=O)N[C@H](C(=O)N[C@@H](CC(N)=O)C(=O)N[C@@H](Cc1c[nH]c2ccccc12)C(=O)N[C@@H](CC(C)C)C(=O)N[C@H](C(=O)N[C@@H](CCC(N)=O)C(=O)N[C@H](C(=O)N[C@H]1CCC(=O)NCCCC[C@@H](C(N)=O)NC(=O)[C@H]([C@@H](C)O)NC(=O)[C@H]([C@@H](C)CC)NC1=O)[C@@H](C)O)[C@@H](C)CC)[C@@H](C)CC)[C@@H](C)CC)[C@@H](C)O [Example 90] (H-H[Aib]DGSFSDE[Nle][dF]TILDLKAAKDFINWLIQTEITK-NH2; lactam 30-33 (inferred); C-terminus assumed) | 102 | 25.1 | 100 | 7940 | 22 | 
CCCC[C@H](NC(=O)[C@H](CCC(=O)O)NC(=O)[C@@H]1CC(=O)NCCCC[C@H](NC(=O)[C@H](CC(=O)O)NC(=O)C(C)(C)NC(=O)[C@@H](N)Cc2c[nH]cn2)C(=O)N[C@@H](CO)C(=O)N[C@@H](Cc2ccccc2)C(=O)N[C@@H](CO)C(=O)N1)C(=O)N[C@H](Cc1ccccc1)C(=O)N[C@H](C(=O)N[C@@](C)(CC(C)C)C(=O)N[C@@H](CC(C)C)C(=O)N[C@@H](CC(=O)O)C(=O)N[C@H]1CCC(=O)NCCCC[C@@H](C(=O)N[C@@H](CC(=O)O)C(=O)N[C@@H](Cc2ccccc2)C(=O)N[C@H](C(=O)N[C@H]2CCC(=O)NCCCC[C@@H](C(=O)N[C@H](C(=O)N[C@@H](CCCCN)C(N)=O)[C@@H](C)O)NC(=O)[C@H]([C@@H](C)CC)NC(=O)[C@H](CC(C)C)NC(=O)[C@H](Cc3c[nH]c4ccccc34)NC2=O)[C@@H](C)CC)NC(=O)[C@H](C)NC(=O)[C@H](C)NC(=O)[C@H](CCCCN)NC1=O)[C@@H](C)O [Example 21] (H-H[Aib]DKSFSDE[Nle][dF]T[αMeL]LDEKAAKDFIEWLIKTK-NH2; lactam 4-8, 16-20, 24-28; N-terminus and C-terminus assumed) | 104 |  | 96.6 |  |  | 51.7
